{
  "source": "patent US11464854B2",
  "about": "“Methods and compositions relating to adjuvants” (Children's Medical Center Corporation, priority 2017, dated 2022)",
  "key": {"TNF": {"test_system": "TNF", "assay": "Rat pharmacodynamics: serum TNF by ELISA", "assay_type": "in vivo, rats", "settings": "rat, in vivo, sc"}, "[1]": {"test_system": "cytokine and IFN-inducible gene expression in draining lymph nodes and spleen", "assay_type": "in vivo, mice", "settings": "mouse, in vivo, sc"}},
  "data": [
    {"smiles": "CCOCc1nc2c(N)nc3ccccc3c2n1CC(C)(C)O", "note": "[R848, Resiquimod, reference compound]", "values": [
      {"measurement": "Blood tumor necrosis factor (TNF) concentrations, peak", "setting": "TNF", "result": "~1,000 pg/ml"},
      {"measurement": "time of peak cytokine mRNA expression", "setting": "[1]", "result": "1 to 3", "unit": "h"}
    ]}
  ]
}
